# According to patent publication US20230233559A1, “COMBINATION OF ZIDOVUDINE AND FLUOROQUINOLONE ANTIBIOTIC” (HELPERBY THERAPEUTICS LIMITED, priority 2019, published 2023):
# Assays:
# Format in all cases: cell-based
# Settings in all cases: fluoroquinolone alone
# [1] = tested on: NCTC13443 NDM-1 Klebsiella pneumoniae; test: Chequerboard MIC, log phase NCTC13443
# Procedure: (§1) The chequerboard method used in Example 1 followed the protocols detailed in Antimicrob Chemo (2013) 68, 374-384. Zidovudine and ciprofloxacin were obtained from commercially available sources. The bacteria used were BAA2469 NDM-1 Escherichia coli, BAA2470 NDM-1 Klebsiella pneumoniae, BAA2471 NDM-1 Escherichia coli, BAA2472 NDM-1 Klebsiella pneumoniae, and NCTC13443 NDM-1 Klebsiella pneumoniae. All strains were obtained from a commercial source and log phase growth of the bacteria was carried out using methods known in the art.
# (§2) The effects of the combination of the present invention were examined by calculating the fractional inhibitory concentration index (FICI) of each combination, as follows:
# (§3) (MIC of drug A, tested in combination)/(MIC of drug A, tested alone)+(MIC of drug B, tested in combination)/(MIC of drug B, tested alone).
# (§4) The interaction of the combination was defined as showing synergy if the FICI was ≤0.5, no interaction if the FICI was >0.5 but <4.0 and antagonism if the FICI was >4.0.
# (§5) The method and bacterial strains were identical to Example 1. Zidovudine and levofloxacin were obtained from commercially available sources. The effects of the combination of the present invention were examined by calculating the MIC for each drug alone and in combination in the same manner as Example 1.
# as §5, with “moxifloxacin” for “levofloxacin”
# [2] = tested on: BAA2472 NDM-1 Klebsiella pneumoniae; test: Chequerboard MIC, log phase BAA2472
# Procedure: as §1, §2, §3, §4, §5
# as §5, with “moxifloxacin” for “levofloxacin”
# [3] = tested on: BAA2469 NDM-1 Escherichia coli; test: Chequerboard MIC, log phase BAA2469
# Procedure: as §1, §2, §3, §4, §5
# as §5, with “moxifloxacin” for “levofloxacin”
# [4] = tested on: BAA2471 NDM-1 Escherichia coli; test: Chequerboard MIC, log phase BAA2471
# Procedure: as §1, §2, §3, §4, §5
# as §5, with “moxifloxacin” for “levofloxacin”
# [5] = tested on: BAA2470 NDM-1 Klebsiella pneumoniae; test: Chequerboard MIC, log phase BAA2470
# Procedure: as §1, §2, §3, §4, §5
# as §5, with “moxifloxacin” for “levofloxacin”
SMILES,MIC [1],MIC [2],MIC [3],MIC [4],MIC [5]
"O=C(O)c1cn(C2CC2)c2cc(N3CCNCC3)c(F)cc2c1=O [Ciprofloxacin, 1-cyclopropyl-6-fluoro-1,4-dihydro-4-oxo-7-(1-piperazinyl)-3-quinolinecarboxylic acid]",64 µg/mL,64 µg/mL,64 µg/mL,> 64 µg/mL,8 µg/mL
"C[C@H]1COc2c(N3CCN(C)CC3)c(F)cc3c(=O)c(C(=O)O)cn1c23 [Levofloxacin, (2S)-7-fluoro-2-methyl-6-(4-methylpiperazin-1-yl)-10-oxo-4-oxa-1-azatricyclo[7.3.1.0^5,13]trideca-5(13),6,8,11-tetraene-11-carboxylic acid]",32 µg/mL,32 µg/mL,8 µg/mL,32 µg/mL,8 µg/mL
"COc1c(N2C[C@@H]3CCCN[C@@H]3C2)c(F)cc2c(=O)c(C(=O)O)cn(C3CC3)c12 [Moxifloxacin, 7-[(4aS,7aS)-1,2,3,4,4a,5,7,7a-octahydropyrrolo[3,4-b]pyridin-6-yl]-1-cyclopropyl-6-fluoro-8-methoxy-4-oxoquinoline-3-carboxylic acid]",128 µg/mL,128 µg/mL,16 µg/mL,128 µg/mL,32 µg/mL
